Source: patent US20260028354A1, “TETRAHYDRONAPHTHALENE DERIVATIVES AS ESTROGEN RECEPTOR DEGRADERS” (REGENT OF THE UNIVERSITY OF MICHIGAN, priority 2022, published 2026)
Like-named read-outs stand apart in the source and are kept apart here.

Legend:
[1] = Cell growth assay (WST-8) for "B" compounds; format: cell-based; details: T47D cell line, read-out: Cell growth Inhibition in T47D cell line IC50
Method: Cell Growth Assay. The cells were seeded at 1500/well in 96 well plates overnight. One day after the seeding, they were treated with indicated doses of compounds respectively, 4 days after the compound treatment, 10% WST-8 reagent was added to the culture medium and incubate in a CO2 incubator at 37° C. for 2.5 hours. Before reading, the plate was mixed gently on an orbital shaker for one minute to ensure homogeneous distribution of color. The absorbance was measured of each sample using a microplate reader at a wavelength of 450 nm. The relative absorbance was calculated against the vehicle control from three individually repeats.

[2] = Western blot analysis for "B" compounds; format: cell-based; details: read-out: Traditional Western Degradation Potency (DC50)
Procedure, shortened: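 Target protein levels given as relative mean band intensity over GAPDH from scanned immunoblots. Lysates of treated cells in RIPA buffer, equalized by BCA, separated on 10% gels and transferred to PVDF.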

Row | SMILES | IC50 ([1]; T47D) [nM] | DC50 [2] [nM] | IC50 [1] [nM]
1 | O=C1CCC(N2C(=O)c3cc4c(cc3C2=O)CN(CC(=O)N2CC3(CCN(c5ccc([C@@H]6c7ccc(O)cc7CC[C@@H]6c6ccccc6)cc5F)CC3)C2)C4)C(=O)N1 (mixture of isomers) [Compound B43, 2-(2,6-dioxopiperidin-3-yl)-6-(2-(7-(2-fluoro-4-((1R,2S)-6-hydroxy-2-phenyl-1,2,3,4-tetrahydronaphthalen-1-yl)phenyl)-2,7-diazaspiro[3.5]nonan-2-yl)-2-oxoethyl)-6,7-dihydropyrrolo[3,4-f]isoindole-1,3(2H,5H)-dione] | 1 to 10 | > 100 | 
2 | O=C1CCC(N2C(=O)c3cc4c(cc3C2=O)CN(CC(=O)N2CC3(CCN(c5ccc([C@@H]6c7ccc(O)cc7CC[C@@H]6c6ccccc6)c(F)c5)CC3)C2)C4)C(=O)N1 (mixture of isomers) [Compound B44, 2-(2,6-dioxopiperidin-3-yl)-6-(2-(7-(3-fluoro-4-((1S,2S)-6-hydroxy-2-phenyl-1,2,3,4-tetrahydronaphthalen-1-yl)phenyl)-2,7-diazaspiro[3.5]nonan-2-yl)-2-oxoethyl)-6,7-dihydropyrrolo[3,4-f]isoindole-1,3(2H,5H)-dione] | > 10 | 10 to 100 | 
3 | O=C1CCC(N2C(=O)c3cc4c(cc3C2=O)CN(CC(=O)N2CCC3(CC2)CCN(c2c(F)cc([C@@H]5c6ccc(O)cc6CC[C@@H]5c5ccccc5)cc2F)CC3)C4)C(=O)N1 (mixture of isomers) [Compound B45, 6-(2-(9-(2,6-difluoro-4-((1R,2S)-6-hydroxy-2-phenyl-1,2,3,4-tetrahydronaphthalen-1-yl)phenyl)-3,9-diazaspiro[5.5]undecan-3-yl)-2-oxoethyl)-2-(2,6-dioxopiperidin-3-yl)-6,7-dihydropyrrolo[3,4-f]isoindole-1,3(2H,5H)-dione] | > 10 | > 100 | 
4 | O=C1CCC(N2C(=O)c3cc4c(cc3C2=O)CN(CC(=O)N2CCC3(CC2)CCN(c2cc(F)c([C@@H]5c6ccc(O)cc6CC[C@@H]5c5ccccc5)c(F)c2)CC3)C4)C(=O)N1 (mixture of isomers) [Compound B46, 6-(2-(9-(3,5-difluoro-4-((1S,2S)-6-hydroxy-2-phenyl-1,2,3,4-tetrahydronaphthalen-1-yl)phenyl)-3,9-diazaspiro[5.5]undecan-3-yl)-2-oxoethyl)-2-(2,6-dioxopiperidin-3-yl)-6,7-dihydropyrrolo[3,4-f]isoindole-1,3(2H,5H)-dione] | > 10 | > 100 | 
5 | O=C1CCC(N2C(=O)c3cc4c(cc3C2=O)CN(CC(=O)N2CCC3(CC2)CCN(c2ccc([C@@H]5c6ccc(O)cc6CC[C@@H]5C5CCCCC5)cc2)CC3)C4)C(=O)N1 (mixture of isomers) [Compound B47, 6-(2-(9-(4-((1R,2R)-2-cyclohexyl-6-hydroxy-1,2,3,4-tetrahydronaphthalen-1-yl)phenyl)-3,9-diazaspiro[5.5]undecan-3-yl)-2-oxoethyl)-2-(2,6-dioxopiperidin-3-yl)-6,7-dihydropyrrolo[3,4-f]isoindole-1,3(2H,5H)-dione] | 1 to 10 | 10 to 100 | 
6 | O=C1CCC(N2C(=O)c3cc4c(cc3C2=O)CN(CC(=O)N2CCC3(CC2)CCN(c2ccc([C@@H]5c6ccc(O)cc6CC[C@@H]5C5CCC(F)(F)CC5)cc2)CC3)C4)C(=O)N1 (mixture of isomers) [Compound B48, 6-(2-(9-(4-((1R,2R)-2-(4,4-difluorocyclohexyl)-6-hydroxy-1,2,3,4-tetrahydronaphthalen-1-yl)phenyl)-3,9-diazaspiro[5.5]undecan-3-yl)-2-oxoethyl)-2-(2,6-dioxopiperidin-3-yl)-6,7-dihydropyrrolo[3,4-f]isoindole-1,3(2H,5H)-dione] | 1 to 10 | 10 to 100 | 
7 | O=C1CCC(N2C(=O)c3cc4c(cc3C2=O)CN(CC(=O)N2CCC3(CC2)CCN(c2ccc([C@@H]5c6ccc(B(O)O)cc6CC[C@@H]5c5ccccc5)cc2)CC3)C4)C(=O)N1 (mixture of isomers) [Compound B50, ((5R,6S)-5-(4-(9-(2-(6-(2,6-dioxopiperidin-3-yl)-5,7-dioxo-3,5,6,7-tetrahydropyrrolo[3,4-f]isoindol-2(1H)-yl)acetyl)-3,9-diazaspiro[5.5]undecan-3-yl)phenyl)-6-phenyl-5,6,7,8-tetrahydronaphthalen-2-yl)boronic acid] | > 10 | 10 to 100 | 
8 | O=C1CCC(N2C(=O)c3cc4c(cc3C2=O)CN(CC(=O)N2CCC3(CC2)CCN(c2ccc([C@@H]5c6ccc(O)cc6CCC56CCCC6)cc2)CC3)C4)C(=O)N1 (stereo in doubt) [Compound B49, 2-(2,6-dioxopiperidin-3-yl)-6-(2-(9-(4-(6'-hydroxy-3',4'-dihydro-1'H-spiro[cyclopentane-1,2'-naphthalen]-1'-yl)phenyl)-3,9-diazaspiro[5.5]undecan-3-yl)-2-oxoethyl)-6,7-dihydropyrrolo[3,4-f]isoindole-1,3(2H,5H)-dione] | 1 to 10 | 10 to 100 | 
9 | O=C1CCC(N2C(=O)c3cc4c(cc3C2=O)CN(CC(=O)N2CC3(CCN(c5ccc([C@@H]6c7ccc(O)cc7CC[C@@H]6c6ccccc6)cc5)CC3)C2)C4)C(=O)N1 (stereo partly drawn) [Compound B28, 2-(2,6-dioxopiperidin-3-yl)-6-(2-(7-(4-((1R,2S)-6-hydroxy-2-phenyl-1,2,3,4-tetrahydronaphthalen-1-yl)phenyl)-2,7-diazaspiro[3.5]nonan-2-yl)-2-oxoethyl)-6,7-dihydropyrrolo[3,4-f]isoindole-1,3(2H,5H)-dione] |  | < 10 | 1 to 10
10 | O=C1CCC(N2C(=O)c3cc4c(cc3C2=O)CCN(CC(=O)N2CCC3(CC2)CCN(c2ccc([C@@H]5c6ccc(O)cc6CC[C@@H]5c5ccc(F)cc5)cc2)CC3)CC4)C(=O)N1 (stereo partly drawn) [Compound B52, 2-(2,6-dioxopiperidin-3-yl)-7-(2-(9-(4-((1R,2S)-2-(4-fluorophenyl)-6-hydroxy-1,2,3,4-tetrahydronaphthalen-1-yl)phenyl)-3,9-diazaspiro[5.5]undecan-3-yl)-2-oxoethyl)-6,7,8,9-tetrahydroazepino[4,5-f]isoindole-1,3(2H,5H)-dione] | 1 to 10 | > 100 | 
11 | O=C1CCC(N2C(=O)c3cc4c(cc3C2=O)CN(CC2CCN(C(=O)C3CCN(c5ccc([C@@H]6c7ccc(O)cc7CC[C@@H]6c6ccccc6)cc5)CC3)CC2)C4)C(=O)N1 (stereo partly drawn) [Compound B56, 2-(2,6-dioxopiperidin-3-yl)-6-((1-(1-(4-((1R,2S)-6-hydroxy-2-phenyl-1,2,3,4-tetrahydronaphthalen-1-yl)phenyl)piperidine-4-carbonyl)piperidin-4-yl)methyl)-6,7-dihydropyrrolo[3,4-f]isoindole-1,3(2H,5H)-dione] | 1 to 10 | 10 to 100 | 
12 | O=C1CCC(N2C(=O)c3cc4c(cc3C2=O)CN(C(=O)C2CCN(CC3CCN(c5ccc([C@@H]6c7ccc(O)cc7CC[C@@H]6c6ccccc6)cc5)CC3)CC2)C4)C(=O)N1 (stereo partly drawn) [Compound B57, 2-(2,6-dioxopiperidin-3-yl)-6-(1-((1-(4-((1R,2S)-6-hydroxy-2-phenyl-1,2,3,4-tetrahydronaphthalen-1-yl)phenyl)piperidin-4-yl)methyl)piperidine-4-carbonyl)-6,7-dihydropyrrolo[3,4-f]isoindole-1,3(2H,5H)-dione] | 1 to 10 | > 100 | 
13 | O=C1CCC(N2C(=O)c3cc4c(cc3C2=O)CN(C2CCN(CC3CCN(c5ccc([C@@H]6c7ccc(O)cc7CC[C@@H]6c6ccccc6)cc5)CC3)CC2)C4)C(=O)N1 (stereo partly drawn) [Compound B64, 2-(2,6-dioxopiperidin-3-yl)-6-(1-((1-(4-((1R,2S)-6-hydroxy-2-phenyl-1,2,3,4-tctrahydronaphthalcn-1-yl)phenyl)pipcridin-4-yl)methyl)piperidin-4-yl)-6,7-dihydropyrrolo[3,4-f]isoindole-1,3(2H,5H)-dione] | 1 to 10 | < 10 | 
14 | O=C1CCC(N2C(=O)c3cc4c(cc3C2=O)CN(CC(=O)N2CCC3(CC2)CCN(c2ccc([C@@H]5c6ccc(O)cc6CC[C@@H]5c5ccccc5)cc2)CC3)C4)C(=O)N1 (stereo partly drawn) [Compound B133, 2-(2,6-dioxopiperidin-3-yl)-6-(2-(9-(4-((1R,2S)-6-hydroxy-2-phenyl-1,2,3,4-tetrahydronaphthalen-1-yl)phenyl)-3,9-diazaspiro[5.5]undecan-3-yl)-2-oxoethyl)-6,7-dihydropyrrolo[3,4-f]isoindole-1,3(2H,5H)-dione] |  | 10 to 100 | 1 to 10
15 | O=C1CCC(N2Cc3cc4c(cc3C2=O)OC[C@@H]2CN(CC3CCN(c5ccc([C@@H]6c7ccc(O)cc7CC[C@@H]6c6ccccc6)cc5)CC3)CCN42)C(=O)N1 (stereo partly drawn) [Compound B135, 3-((S)-3-((1-(4-((1R,2S)-6-hydroxy-2-phenyl-1,2,3,4-tetrahydronaphthalen-1-yl)phenyl)piperidin-4-yl)methyl)-8-oxo-1,2,3,4,4a,5,8,10-octahydro-9H-pyrazino[1′,2′:4,5][1,4]oxazino[2,3-f]isoindol-9-yl)piperidine-2,6-dione] | 1 to 10 | 10 to 100 | 
16 | COc1c2c(cc3c1C(=O)N(C1CCC(=O)NC1=O)C3=O)CN(CC(=O)N1CCC3(CC1)CCN(c1ccc([C@@H]4c5ccc(O)cc5CC[C@@H]4c4ccccc4)cc1)CC3)C2 (stereo partly drawn) [Compound B136, 2-(2,6-dioxopiperidin-3-yl)-6-(2-(9-(4-((1R,2S)-6-hydroxy-2-phenyl-1,2,3,4-tetrahydronaphthalen-1-yl)phenyl)-3,9-diazaspiro[5.5]undecan-3-yl)-2-oxoethyl)-4-methoxy-6,7-dihydropyrrolo[3,4-f]isoindole-1,3(2H,5H)-dione] | 1 to 10 | 10 to 100 | 
